Patent publication US20090312310A1 (priority 2006, published 2009)

Assays:
[1] = tested on: human colon cancer-derived cell line DLD-1 having mutant p53; test: Cell growth inhibition assay (MTT), DLD-1; assay type: cell-based; conditions: DLD-1 (mutant p53), 72 hours
Protocol: (§1) An anti-cell test was conducted using two cells (human lung cancer-derived cell line NCI-H460 having wild-type p53 and human colon cancer-derived cell line DLD-1 having mutant p53).
(§2) Cells of the respective cell lines were suspended in a medium (RPMI1640 medium containing 10% fetal bovine serum) and these suspensions were inoculated in amounts of 500 cells/150 μL/well and 1000 cells/150 μL/well, respectively, to a 96-well multiwell plate. A test compound was dissolved in DMSO and this solution was diluted with medium to prepare a sample solution (DMSO concentration: 1% or lower). On the next day of inoculation, medium containing DMSO nonsupplemented with the test compound (hereinafter, referred to as a DMSO dilution, DMSO concentration: 1% or lower) or the sample solution was added in an amount of 50 μL/well. MTT assay was conducted immediately after addition of the sample solution or the DMSO dilution to the cells and after culture of the cells (after addition of the sample solution or the DMSO dilution) at 37° C. for 72 hours in a 5% CO2 atmosphere. The MTT assay was conducted as shown below.
(§3) A 5 mg/mL MTT (3-(4,5-dimethylthiazol-2-yl)-2,5-diphenyltetrazolium bromide, Sigma-Aldrich Co., M-2128) solution was prepared using phosphate buffer solutions (Dulbecco's Phosphate-buffered Salines). This MTT solution was added in an amount of 20 μL/well. Then, the plate was cultured at 37° C. for 4 hours in a 5% CO2 atmosphere. The plate was centrifuged at 1200 rpm for 5 minutes and then the culture supernatant was removed by aspiration using a dispenser. DMSO was added in an amount of 150 μL/well to dissolve generated formazan. […] The absorbance of each well was measured under conditions of OD 540 nm and reference 660 nm using a plate reader (SpectraMax PLUS384, Molecular Devices, CA, USA).
(§4) The OD value measured immediately after addition of the sample solution was defined as S. The OD value measured 72 hours after addition of the sample solution was defined as T. The OD value measured 72 hours after addition of the DMSO dilution was defined as C. […]

Mdm2/p53 binding = biological target: T1, Mdm2/p53 binding (Homo sapiens, UniProt Q00987, L33E); test: Mdm2/p53 binding assay (HTRF, His-p53 / GST-Mdm2); conditions: His-p53 (aa 1-132) and GST-Mdm2 (aa 25-108, L33E), 6.25 nM each; 25° C., 1 hour
T1 construct: having Mdm2 amino acids at positions 25 to 108
T1 sequence (Q00987 25-108 L33E, species assumed): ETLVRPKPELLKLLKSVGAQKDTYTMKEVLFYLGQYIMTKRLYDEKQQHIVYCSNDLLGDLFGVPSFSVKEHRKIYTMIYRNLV
Protocol: Next, a test compound was diluted with protein buffer solution containing 10% DMSO, and this test compound dilution was added in an amount of 4 μL/well to the plate.
These dilutions were added in an amount of 8 μL/well (total reaction solution volume: 20 μl/well). Then, the plate was left at 25° C. for 1 hour.
C (correction factor)=(A−BI)/D
The R value calculated from the well supplemented with His-p53, GST-Mdm2, the test compound, and each antibody was defined as R (sample). The R value calculated from the well supplemented with His-p53, GST-Mdm2, and each antibody but without the test compound was defined as R (control). The R value calculated from the well supplemented with GST-Mdm2, the test compound, and each antibody but without His-p53 was defined as R (background). T/C was calculated from the formula shown below. An IC50 value for Mdm2/p53 binding was calculated by sigmoid fitting using Prism (GraphPad Software).
T/C=(R (sample)−R (background))/(R (control)−R (background))

[2] = tested on: human lung cancer-derived cell line NCI-H460 having wild-type p53; test: Cell growth inhibition assay (MTT), NCI-H460; assay type: cell-based; conditions: 72 hours
Protocol: as §1, §2, §3, §4

GI50 [1]	IC50 (Mdm2/p53 binding)	GI50 [2]	GI50 ([1]; Homo sapiens)	GI50 ([2]; Homo sapiens)	Compound
> 50000 nM	10 nM	2810 nM			CC(C)C1=C(C(=O)N2CCC[C@H]2C(=O)N2CCOCC2)SC2=N[C@@](C)(c3ccc(Cl)nc3)[C@@H](c3ccc(Cl)cc3)N21 (single isomer, unassigned; isomer b) [Example 97 (Isomer B)]
	18 nM		> 50000 nM	1750 nM	CC(=O)N(C)[C@@H](C)CN(C)C(=O)[C@@H]1CCCN1C(=O)C1=C(C(C)C)N2C(=N[C@@](C)(c3ccc(Cl)cc3)[C@H]2c2ccc(Cl)cc2)S1 [Example 73, N-{(2S)-2-[Acetyl(methyl)amino]propyl}-1-{[(5R,6S)-5,6-bis(4-chlorophenyl)-3-isopropyl-6-methyl-5,6-dihydroimidazo[2,1-b][1,3]thiazol-2-yl]carbonyl}-N-methyl-L-prolinamide]
			40700 nM	1380 nM	CC(C)C1=C(C(=O)N2[C@@H](C)CC[C@H]2C(=O)N(C)C)SC2=N[C@@](C)(c3ccc(Cl)cc3)[C@@H](c3ccc(Cl)cc3)N21 [Example 112, (5S)-1-{[(5R,6S)-5,6-Bis(4-chlorophenyl)-3-isopropyl-6-methyl-5,6-dihydroimidazo[2,1-b][1,3]thiazol-2-yl]carbonyl}-N,N,5-trimethyl-L-prolinamide]
